The target of data set [1] is CYP2C19 (Homo sapiens, UniProt P33261). Nature of the data set: Inhibition of CYP2C19 in human liver microsomes assessed as remaining activity at 10 uM using 5-mephenytoin as substrate preincubated for 5 mins followed by NADPH generating system addition for 15 mins by LC-MS/MS method relative to control. The class given is ADME, Microsome. To be noted: probe 5-mephenytoin, time 20 min, read-out: Activity. Background: Liver microsomes are a subcellular fraction often used to study metabolism.

Data set [2] in a line: Acute toxicity in ICR mouse assessed as change in heart weight at 30 to 300 mg/kg, po measured every other day for 14 days […]. The class given is organism-based. Conditions: in vivo, 336 h, dose 30-300 mg/kg, time 14 day.
For data set [3], the target named is Prostaglandin G/H synthase 1 (Homo sapiens, UniProt P23219). The experiment in a line: Inhibition of COX-1 (unknown origin).
The subject of data set [4] is U-937. Nature of the data set: Induction of apoptosis in human U-937 cells assessed as viable cells at 1 uM incubated for 24 hrs by Annexin V FITC/PI staining based flow cytometry analysis ( Rvb = 95.2 +/- 0.4%). The class given is functional. Conditions: read-out: Activity. Background: A flow cytometer gives signals particle by particle.
A short description of data set [5]: Cmax in Sprague-Dawley rat at 5 mg/kg, po by LC-MS analysis. The data set is classed as ADME, organism-based. To be noted: in vivo.
The nature of data set [6]: Acute toxicity in ICR mouse assessed as abnormal behavior at 30 to 300 mg/kg, po measured every other day for 14 days. The data set is classed as organism-based. To be noted: in vivo, 336 h, dose 30-300 mg/kg, time 14 day.
Data set [7] in a line: Half life in Sprague-Dawley rat at 1 mg/kg, po by LC-MS analysis. Conditions: in vivo. The class given is ADME, organism-based.
Data set [8] can be described thus: Cmax in Sprague-Dawley rat at 1 mg/kg, po by LC-MS analysis. The class given is ADME, organism-based. Conditions: in vivo.
The target of data set [9] is T1, Amine oxidase [flavin-containing] B (Homo sapiens, UniProt P27338).
T1 sequence (P27338 whole entry): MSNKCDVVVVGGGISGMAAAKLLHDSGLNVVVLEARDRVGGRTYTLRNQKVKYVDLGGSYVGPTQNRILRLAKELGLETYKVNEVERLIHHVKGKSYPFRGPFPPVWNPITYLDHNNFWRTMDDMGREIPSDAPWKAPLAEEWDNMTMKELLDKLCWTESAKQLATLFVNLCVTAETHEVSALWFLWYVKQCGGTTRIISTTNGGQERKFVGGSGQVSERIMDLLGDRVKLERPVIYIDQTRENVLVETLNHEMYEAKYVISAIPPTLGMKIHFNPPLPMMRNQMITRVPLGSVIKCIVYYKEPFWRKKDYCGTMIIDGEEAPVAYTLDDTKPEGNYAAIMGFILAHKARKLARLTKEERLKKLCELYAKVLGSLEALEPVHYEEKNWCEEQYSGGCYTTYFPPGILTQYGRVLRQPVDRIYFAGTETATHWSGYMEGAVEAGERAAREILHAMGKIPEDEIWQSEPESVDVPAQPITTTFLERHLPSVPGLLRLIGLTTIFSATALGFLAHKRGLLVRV
Nature of the data set: Inhibition of MAOB (unknown origin).

These results are taken from ChEMBL document CHEMBL5523723, “G Protein-Coupled Estrogen Receptor-Mediated Anti-Inflammatory and Mucosal Healing Activity of a Trimethylpyridinol Analogue in Inflammatory Bowel Disease” (J Med Chem, 2024).

A word on the IC50: it is the point on the concentration scale where inhibition reaches its midpoint. In general, Cmax refers to the maximum level reached in the sampled fluid or tissue. By half-life is commonly meant the time needed for the level to fall by half in the phase considered. Higher therefore signals slow loss.

Chain of CYP2C19 (P33261 whole entry): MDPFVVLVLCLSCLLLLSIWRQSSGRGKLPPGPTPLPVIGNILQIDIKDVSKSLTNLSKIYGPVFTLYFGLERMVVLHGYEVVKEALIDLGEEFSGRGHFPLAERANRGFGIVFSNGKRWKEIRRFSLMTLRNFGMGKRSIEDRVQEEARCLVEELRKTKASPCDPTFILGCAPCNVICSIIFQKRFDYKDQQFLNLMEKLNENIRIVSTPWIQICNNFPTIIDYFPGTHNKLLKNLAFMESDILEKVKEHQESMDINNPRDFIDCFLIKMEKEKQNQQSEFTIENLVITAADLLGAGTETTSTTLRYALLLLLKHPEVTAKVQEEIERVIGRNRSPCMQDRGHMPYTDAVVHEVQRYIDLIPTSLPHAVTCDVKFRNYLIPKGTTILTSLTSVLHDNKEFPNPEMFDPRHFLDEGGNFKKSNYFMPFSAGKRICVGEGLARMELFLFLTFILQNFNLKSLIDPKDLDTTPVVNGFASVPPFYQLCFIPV
Chain of Prostaglandin G/H synthase 1 (P23219 whole entry): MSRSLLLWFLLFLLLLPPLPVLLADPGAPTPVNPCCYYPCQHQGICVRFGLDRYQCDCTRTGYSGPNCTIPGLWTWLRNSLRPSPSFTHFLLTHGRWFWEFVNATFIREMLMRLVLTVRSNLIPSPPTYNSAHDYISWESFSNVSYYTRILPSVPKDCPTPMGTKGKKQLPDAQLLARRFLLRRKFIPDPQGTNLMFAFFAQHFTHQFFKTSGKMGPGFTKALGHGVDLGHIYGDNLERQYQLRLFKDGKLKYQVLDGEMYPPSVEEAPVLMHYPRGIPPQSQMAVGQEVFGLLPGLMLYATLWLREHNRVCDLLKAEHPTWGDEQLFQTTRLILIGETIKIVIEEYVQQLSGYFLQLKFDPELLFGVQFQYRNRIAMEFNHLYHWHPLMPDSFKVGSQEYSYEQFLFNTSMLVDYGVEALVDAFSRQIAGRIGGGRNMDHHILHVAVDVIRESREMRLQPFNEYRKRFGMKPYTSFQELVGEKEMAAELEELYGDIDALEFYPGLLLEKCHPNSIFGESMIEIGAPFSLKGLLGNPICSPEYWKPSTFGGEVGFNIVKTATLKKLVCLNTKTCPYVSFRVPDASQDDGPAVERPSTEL

For `Cc1nc(NC(=O)c2sc3cc(F)ccc3c2Cl)c(C)c(C)c1O`, the activity at 0.25 h, 10 µM in [1] stood at 98.3%. Also, the Activity result in data set [2] and in data set [6] was “Non-Toxic” throughout. For the same molecule, the figures for the half-inhibitory concentration (IC50) in data set [3] and in data set [9] were 800 nM and 54 nM, respectively. The viability at 1 µM in data set [4] is 95.4%. Further, the Cmax in data set [5] was 760 ng/mL; in [8], 51.9 ng/mL. Besides, the half-life in [7] is 3.8 h.
